Data as given in BigSolDB 2.1.

O=C(O)[C@H]1O[C@@H](Oc2cc3oc(-c4ccccc4)cc(=O)c3c(O)c2O)[C@H](O)[C@@H](O)[C@@H]1O
solubility (mole fraction)
Details | 278.15 K | 283.15 K | 288.15 K | 293.15 K | 298.15 K | 303.15 K | 308.15 K | 313.15 K | 318.15 K
in ethanol | 0.000171 | 0.000176 | 0.000181 | 0.000186 | 0.000191 | 0.000196 | 0.000202 | 0.000205 | 0.000212
in isopropanol | 0.000676 | 0.000855 | 0.00112 | 0.00145 | 0.00191 | 0.00246 | 0.00314 | 0.00392 | 0.00472
in methanol | 8.11e-05 | 9.11e-05 | 0.000101 | 0.000113 | 0.000127 | 0.000143 | 0.000157 | 0.000171 | 0.000192
in n-propanol | 0.000768 | 0.00101 | 0.00133 | 0.00171 | 0.00224 | 0.00289 | 0.00363 | 0.00451 | 0.00551
in water | 2.38e-06 | 3.13e-06 | 4.35e-06 | 5.8e-06 | 7.49e-06 | 9.78e-06 | 1.27e-05 | 1.59e-05 | 2.03e-05
